Data published in US12194051B2, “5-azaindazole derivatives as adenosine receptor antagonists” (MERCK PATENT GMBH, priority 2018, dated 2025).

Tests used:
[1] = target: T1, human A2B receptors (Homo sapiens, UniProt P29275); assay: Inhibition of human A2B receptor in recombinant HEK293 cells, cAMP quantification (HTRF); assay type: cell-based; conditions: read-out: A2B (Category)
T1 construct: expressed in transfected cells; host or cells: HEK293
T1 sequence (P29275 1-332): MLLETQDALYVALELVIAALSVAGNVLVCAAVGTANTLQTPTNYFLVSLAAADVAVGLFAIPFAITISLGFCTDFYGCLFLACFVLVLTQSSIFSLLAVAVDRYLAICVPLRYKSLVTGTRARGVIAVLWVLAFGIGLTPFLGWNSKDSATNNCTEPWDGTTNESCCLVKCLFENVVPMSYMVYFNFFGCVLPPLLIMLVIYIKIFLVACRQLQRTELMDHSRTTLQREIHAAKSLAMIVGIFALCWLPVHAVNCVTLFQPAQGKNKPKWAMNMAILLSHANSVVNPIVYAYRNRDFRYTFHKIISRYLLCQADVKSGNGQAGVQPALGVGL
Summary of the method: (§1)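 Following a 15 min incubation, HTRF detection reagents are added and intracellular cAMP is quantified.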

[2] = target: T2, human A2A receptors (Homo sapiens, UniProt P29274); assay: Inhibition of human A2A receptor in recombinant HEK293 cells, cAMP quantification (HTRF); assay type: cell-based; conditions: read-out: A2A (Category)
T2 construct: expressed in transfected cells; host or cells: HEK293
T2 sequence (P29274 whole entry): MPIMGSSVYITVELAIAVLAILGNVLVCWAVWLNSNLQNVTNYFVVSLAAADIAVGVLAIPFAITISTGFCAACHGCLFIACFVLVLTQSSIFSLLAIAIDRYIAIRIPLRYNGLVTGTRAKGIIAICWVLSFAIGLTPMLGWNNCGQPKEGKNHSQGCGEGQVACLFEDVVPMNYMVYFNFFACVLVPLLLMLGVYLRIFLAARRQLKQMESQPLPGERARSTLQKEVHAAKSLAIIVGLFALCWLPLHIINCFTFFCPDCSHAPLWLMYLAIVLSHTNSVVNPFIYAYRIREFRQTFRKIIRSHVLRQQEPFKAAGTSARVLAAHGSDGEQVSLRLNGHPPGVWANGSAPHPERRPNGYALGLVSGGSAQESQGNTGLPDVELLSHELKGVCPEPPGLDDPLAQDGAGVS
Summary of the method: as §1

| IC50 [1] | IC50 [2] | SMILES |
| --- | --- | --- |
| < 100 nM | < 100 nM | O=C(c1cc2c(cn1)c(Nc1nccs1)nn2CC(F)(F)F)N1CCCOCC1 [Compound 85, [1,4]Oxazepan-4-yl-[3-(thiazol-2-ylamino)-1-(2,2,2-trifluoro-ethyl)-1H-pyrazolo[4,3-c]pyridin-6-yl]methanone] |
| < 1000 nM | < 100 nM | O=C(c1cc2c(cn1)c(Nc1cccc(=O)[nH]1)nn2CC(F)(F)F)N1CCCOCC1 [Compound 86, 6-[6-([1,4]Oxazepane-4-carbonyl)-1-(2,2,2-trifluoro-ethyl)-1H-pyrazolo[4,3-c]pyridin-3-ylamino]-1H-pyridin-2-one] |
| < 100 nM | < 100 nM | [2H]C1([2H])COCCN(C(=O)c2cc3c(cn2)c(Nc2ccc(F)cn2)nn3CC(F)(F)F)C1 [Compound 91, (6,6-dideuterio-1,4-oxazepan-4-yl)-[3-[(5-fluoro-2-pyridyl)amino]-1-(2,2,2-trifluoroethyl)pyrazolo[4,3-c]pyridin-6-yl]methanone] |
| < 100 nM | < 100 nM | O=C(c1cc2c(cn1)c(Nc1ccc(F)cn1)nn2CC(F)(F)F)N1CCOC[C@@H](F)C1 [Compound 93, [(6S)-6-fluoro-1,4-oxazepan-4-yl]-[3-[(5-fluoro-2-pyridyl)amino]-1-(2,2,2-trifluoroethyl)pyrazolo[4,3-c]pyridin-6-yl]methanone] |
| < 100 nM | < 100 nM | O=C(c1cc2c(cn1)c(Nc1ccc(F)cn1)nn2CC(F)(F)F)N1CCC(O)CC1 [Compound 94, [3-[(5-fluoro-2-pyridyl)amino]-1-(2,2,2-trifluoroethyl)pyrazolo[4,3-c]pyridin-6-yl]-(4-hydroxypiperidin-1-yl)methanone] |
| < 1000 nM | < 100 nM | CC1(O)CCN(C(=O)c2cc3c(cn2)c(Nc2ccc(F)cn2)nn3CC(F)(F)F)CC1 [Compound 95, [3-(5-Fluoro-pyridin-2-ylamino)-1-(2,2,2-trifluoro-ethyl)-1H-pyrazolo[4,3-c]pyridin-6-yl]-(4-hydroxy-4-methyl-piperidin-1-yl)-methanone] |
| < 1000 nM | < 100 nM | O=C(c1cc2c(cn1)c(Nc1ccc(F)cn1)nn2CC(F)(F)F)N1CCC(F)CC1 [Compound 96, (4-Fluoro-piperidin-1-yl)-[3-(5-fluoro-pyridin-2-ylamino)-1-(2,2,2-trifluoro-ethyl)-1H-pyrazolo[4,3-c]pyridin-6-yl]-methanone] |
| < 1000 nM | < 100 nM | O=C(c1cc2c(cn1)c(Nc1ccc(F)cn1)nn2CC(F)(F)F)N1CCC[C@@H](O)C1 [Compound 97, [(3R)-3-hydroxy-piperidin-1-yl]-[3-(5-Fluoro-pyridin-2-ylamino)-1-(2,2,2-trifluoro-ethyl)-1H-pyrazolo[4,3-c]pyridin-6-yl]-methanone] |
| < 1000 nM | < 100 nM | O=C(c1cc2c(cn1)c(Nc1ccc(F)cn1)nn2CC(F)(F)F)N1CCC[C@H](O)C1 [Compound 98, [(3S)-3-hydroxy-piperidin-1-yl]-[3-(5-Fluoro-pyridin-2-ylamino)-1-(2,2,2-trifluoro-ethyl)-1H-pyrazolo[4,3-c]pyridin-6-yl]methanone] |
| < 1000 nM | < 100 nM | O=C(c1cc2c(cn1)c(Nc1ccc(F)cn1)nn2CC(F)(F)F)N1CCC[C@@H](F)C1 [Compound 99, [(3R)-3-fluoro-piperidin-1-yl]-[3-(5-Fluoro-pyridin-2-ylamino)-1-(2,2,2-trifluoro-ethyl)-1H-pyrazolo[4,3-c]pyridin-6-yl]methanone] |
| < 1000 nM | < 100 nM | O=C(c1cc2c(cn1)c(Nc1ccc(F)cn1)nn2CC(F)(F)F)N1CCC[C@H](F)C1 [Compound 100, [(3S)-3-fluoro-piperidin-1-yl]-[3-(5-Fluoro-pyridin-2-ylamino)-1-(2,2,2-trifluoro-ethyl)-1H-pyrazolo[4,3-c]pyridin-6-yl]methanone] |
| < 100 nM | < 100 nM | O=C(c1cc2c(cn1)c(Nc1ccc(F)cn1)nn2CC(F)(F)F)N1CCC[C@@H](CO)C1 [Compound 101, [3-[(5-fluoro-2-pyridyl)amino]-1-(2,2,2-trifluoroethyl)pyrazolo[4,3-c]pyridin-6-yl]-[(3R)-3-(hydroxymethyl)-1-piperidyl]methanone] |
| < 100 nM | < 100 nM | O=C(c1cc2c(cn1)c(Nc1ccc(F)cn1)nn2CC(F)(F)F)N1CCC[C@H](CO)C1 [Compound 102, [3-[(5-fluoro-2-pyridyl)amino]-1-(2,2,2-trifluoroethyl)pyrazolo[4,3-c]pyridin-6-yl]-[(3S)-3-(hydroxymethyl)-1-piperidyl]methanone] |
| < 100 nM | < 100 nM | O=C(c1cc2c(cn1)c(Nc1cc(F)ccn1)nn2CC(F)(F)F)N1CCOC[C@@H](F)C1 [Compound 110, [(6S)-6-fluoro-1,4-oxazepan-4-yl]-[3-(4-fluoro-pyridin-2-ylamino)-1-(2,2,2-trifluoro-ethyl)-1H-pyrazolo[4,3-c]pyridin-6-yl]-methanone] |
| < 100 nM | < 100 nM | O=C(c1cc2c(cn1)c(Nc1cc(F)ccn1)nn2CC(F)(F)F)N1CCC(O)CC1 [Compound 111, [3-[(4-fluoro-2-pyridyl)amino]-1-(2,2,2-trifluoroethyl)pyrazolo[4,3-c]pyridin-6-yl]-(4-hydroxypiperidin-1-yl)methanone] |
| < 100 nM | < 100 nM | CC1(O)CCN(C(=O)c2cc3c(cn2)c(Nc2cc(F)ccn2)nn3CC(F)(F)F)CC1 [Compound 112, [3-(4-Fluoro-pyridin-2-ylamino)-1-(2,2,2-trifluoro-ethyl)-1H-pyrazolo[4,3-c]pyridin-6-yl]-(4-hydroxy-4-methyl-piperidin-1-yl)-methanone] |
| < 100 nM | < 100 nM | CCC1(O)CCN(C(=O)c2cc3c(cn2)c(Nc2cc(F)ccn2)nn3CC(F)(F)F)CC1 [Compound 113, [3-(4-Fluoro-pyridin-2-ylamino)-1-(2,2,2-trifluoro-ethyl)-1H-pyrazolo[4,3-c]pyridin-6-yl]-(4-ethyl-4-hydroxypiperidin-1-yl)-methanone] |
| < 100 nM | < 100 nM | CC(C)C1(O)CCN(C(=O)c2cc3c(cn2)c(Nc2cc(F)ccn2)nn3CC(F)(F)F)CC1 [Compound 114, [3-(4-Fluoro-pyridin-2-ylamino)-1-(2,2,2-trifluoro-ethyl)-1H-pyrazolo[4,3-c]pyridin-6-yl]-(4-isopropyl-4-hydroxypiperidin-1-yl)-methanone] |
| < 100 nM | < 100 nM | O=C(c1cc2c(cn1)c(Nc1cc(F)ccn1)nn2CC(F)(F)F)N1CCC(O)(C2CC2)CC1 [Compound 115, [3-(4-Fluoro-pyridin-2-ylamino)-1-(2,2,2-trifluoro-ethyl)-1H-pyrazolo[4,3-c]pyridin-6-yl]-(4-cyclopropyl-4-hydroxypiperidin-1-yl)-methanone] |
| < 100 nM | < 100 nM | O=C(c1cc2c(cn1)c(Nc1cc(F)ccn1)nn2CC(F)(F)F)N1CCC(F)CC1 [Compound 116, (4-Fluoro-piperidin-1-yl)-[3-(4-fluoro-pyridin-2-ylamino)-1-(2,2,2-trifluoro-ethyl)-1H-pyrazolo[4,3-c]pyridin-6-yl]-methanone] |
| < 100 nM | < 100 nM | O=C(c1cc2c(cn1)c(Nc1cc(F)ccn1)nn2CC(F)(F)F)N1CCC[C@H](O)C1 [Compound 117, [(3S)-3-hydroxy-piperidin-1-yl]-[3-(4-fluoro-pyridin-2-ylamino)-1-(2,2,2-trifluoro-ethyl)-1H-pyrazolo[4,3-c]pyridin-6-yl]methanone] |
| < 1000 nM | < 100 nM | [2H]C1([2H])COCCN(C(=O)c2cc3c(cn2)c(Nc2cnccn2)nn3CC(F)(F)F)C1 [Compound 121] |
| < 100 nM | < 100 nM | O=C(c1cc2c(cn1)c(Nc1cnccn1)nn2CC(F)(F)F)N1CCOC[C@@H](F)C1 [Compound 122, [(6S)-6-fluoro-1,4-oxazepan-4-yl]-[3-(pyrazin-2ylamino)-1-(2,2,2-trifluoro-ethyl)-1H-pyrazolo[4,3-c]pyridin-6-yl]-methanone] |
| < 1000 nM | < 1000 nM | CC1(O)CCN(C(=O)c2cc3c(cn2)c(Nc2cnccn2)nn3CC(F)(F)F)CC1 [Compound 123, [3-(pyrazin-2ylamino)-1-(2,2,2-trifluoro-ethyl)-1H-pyrazolo[4,3-c]pyridin-6-yl]-(4-hydroxy-4-methyl-piperidin-1-yl)-methanone] |
| < 1000 nM | < 100 nM | O=C(c1cc2c(cn1)c(Nc1cnccn1)nn2CC(F)(F)F)N1CCC(F)CC1 [Compound 124, [3-(pyrazin-2ylamino)-1-(2,2,2-trifluoro-ethyl)-1H-pyrazolo[4,3-c]pyridin-6-yl]-(4-fluoro-piperidin-1-yl)-methanone] |

| SMILES | IC50 [1] | IC50 [2] |
| --- | --- | --- |
| O=C(c1cc2c(cn1)c(Nc1ccc(F)cn1)nn2CC(F)(F)F)N1[C@@H]2CC[C@H]1C[C@@H](O)C2 [Compound 107, [3-[(5-fluoro-2-pyridyl)amino]-1-(2,2,2-trifluoroethyl)pyrazolo[4,3-c]pyridin-6-yl]-(3-endo-hydroxy-8-azabicyclo[3.2.1]octan-8-yl)methanone] | < 100 nM | < 100 nM |
| O=C(c1cc2c(cn1)c(Nc1cc(F)ccn1)nn2CC(F)(F)F)N1[C@@H]2CC[C@H]1C[C@@H](O)C2 [Compound 120, [3-[(4-fluoro-2-pyridyl)amino]-1-(2,2,2-trifluoroethyl)pyrazolo[4,3-c]pyridin-6-yl]-(3-endo-hydroxy-8-azabicyclo[3.2.1]octan-8-yl)methanone] | < 100 nM | < 100 nM |
